Values of other authors in paper PMC7099596 (ACS Central Science, 2020).

Legend:
[1] = tested on: MCF-7 breast cancer cell line; conditions: read-out: EC50 antiproliferative activity, MCF-7, ref NCI ID: 122750
[2] = tested on: SKBr-3 breast cancer cell line; conditions: read-out: EC50 antiproliferative activity, SKBr-3, ref NCI ID: 122750

## COC1=C2C[C@@H](C)C[C@H](OC)[C@H](O)[C@@H](C)/C=C(\C)[C@H](OC(N)=O)[C@@H](OC)/C=C\C=C(/C)C(=O)NC(=CC1=O)C2=O [geldanamycin]
[1]
  EC50: 19.9 nM
[2]
  EC50: 24 nM
